Test [1] deals with human lower esophageal sphincter (LES) tissues. Nature of the test: Ex vivo relaxation of carbachol-pre-contracted human lower esophageal sphincter (LES) muscle strips, organ bath. It counts as cell-based. The method, then:
The objective of this study was to determine the relaxation effects of two sGC stimulators, Compound A and Compound B (depicted below) on human lower esophageal sphincter (LES) tissues ex vivo. Human lower esophageal sphincter muscle strips were mounted in a wire myograph apparatus and pre-contracted with carbachol (Cch). A cumulative concentration response curve (CCRC) of Compound A and Compound B was then performed on the tissues. The concentration response was performed with the compounds alone, and/or with the test compounds in the presence of a fixed concentration of the NO donor DETA-NONOate.
Compound A and Compound B were stored at room temperature. On each experimental day, 10 mM stock of the test compound was prepared in DMSO. Further dilutions up to 0.1 μM were made serially in ethanol, and subsequently in distilled water, depending on solubility of the compounds in those solvents. Compound A and Compound B Vehicle solutions were made by following the same serial dilution methods
DETA-NONOate was stored at −20° C. On each experimental day, a stock solution of 100 mM was prepared in Phosphate Buffered Saline (PBS), pH 8 (Boston Bioproducts). A 1:10 dilution from the stock was made in PBS pH 8, to obtain a concentration of 10 mM.
SNP was stored at −20° C. On each experimental day, a stock solution of 100 mM was prepared in distilled water. 25 μl of the 100 mM stock was added to each bath for a final concentration of 100 μM in bath.
Tissues were obtained postmortem. Only macroscopically normal tissue that was obtained from donors with no known recent history of gastrointestinal disease.
Human LES mucosa-free muscle strips, of approximately 15 mm in length and 2-3 mm width were dissected free from surrounding tissue and mounted on tissue posts in 25 mL organ baths (Panlab 16 channel automated organ bath and thermostatic controller) containing physiological saline solution (PSS; composition: 119.0 mM NaCl, 4.70 mM KCl, 1.20 mM MgSO4, 24.9 mM NaHCO3, 1.20 mM KH2PO4, 2.50 mM CaCl2, 11.1 mM glucose), aerated with 95% O2/5% CO2, warmed and maintained at approximately 37° C. The PSS solution was supplemented with 1 μM indomethacin. The LES strips were mounted on the tissue posts and allowed to equilibrate for approximately 30 minutes.
The LES strips were set to a tension of 2.0 g+0.2 g. Baths were washed approximately every 15 minutes over a 60-minute period, with re-tensioning to 2.0±0.2 g if tension dropped below 1.0 g.
The viability of the LES muscle strips was tested by application of 80 mM KCl, looking for maximum contractility response. Upon plateau all baths were washed three times with PSS and the tension was allowed to return to baseline levels. The strips that responded to the KCl functional check were used for CCh-induced contractions.
For each one of compounds A and B, experiments were conducted with LES tissues from two human donors on two separate days.
Upon stabilization of baseline tension, each of the following experiments was allocated to one bath such that 9 or more muscle strips were set up for each compound on each experimental day.
Compound A Experiments with tissues from Donor 1: • 1. CCRC to DETA-NO vehicle • 2. CCRC to Compound A vehicle • 3. CCRC to DETA-NO • 4. CCRC to DETA-NO • 5. CCRC to Compound A • 6. CCRC to Compound A • 7. Since DETA-NO relaxed LES, a CCRC to Compound A was performed in the presence of DETA-NO at a sub-threshold concentration (1 μM, determined in conditions 3 and 4) • 8. CCRC to Compound A in the presence of DETA-NO ([…]) • 9. CCRC to Compound A vehicle in the presence of DETA-NO ([…]).
Compound A Experiments with tissues from Donor 2: • 1. CCRC to Compound A vehicle • 2. CCRC to Compound A vehicle • 3. CCRC to Compound A vehicle in the presence of 10 μM DETA-NO • 4. CCRC to Compound A vehicle in the presence of 30 μM DETA-NO • 5. CCRC to Compound A • 6. CCRC to Compound A • 7. CCRC to Compound A in the presence of 10 μM DETA-NO • 8. CCRC to Compound A in the presence of 10 μM DETA-NO • 9. […]

The test system of test [2] is achalasia patients. The following applies: report from 2000; cited from earlier work.
Setting [3] is: 10 μM compound in the presence of 30 μM DETA-NO.
The mark [4] stands for this setting: in the presence of 30 μM DETA-NO.

With `OC(CNc1nc(-c2cc(-c3ccon3)n(Cc3ccccc3F)n2)ncc1F)(C(F)(F)F)C(F)(F)F` [Compound A], in test [1] (10 μM compound in the presence of 1 μM DETA-NO, donor 1), the relaxation came out at 16%. In addition, the maximum relaxation in test [1] (10 μM compound in the presence of 10 μM DETA-NO, donor 2, N=4) came to 38%; in test [1] (10 μM compound, absence of NO, first donor, N=2) it was 49%; in test [1] (10 μM compound, absence of NO, second donor, N=2), 31%; in test [1] (in the presence of 30 μM DETA-NO, donor 2, N=3) it was 51%.
A word on the EC50: it is the midpoint of the concentration-response curve. For the compound `NC(=O)[C@](O)(CNc1nc(-c2cc(-c3ccon3)n(Cc3ccccc3F)n2)ncc1F)C(F)(F)F` [Compound B], the “maximum relaxation relative to isoprenaline” value in test [1] (setting [3]) was found to be 77%; in test [1] (10 μM compound, absence of NO, N=8) it was 47%. In addition, in test [1] (setting [4]), the EC50 was 1700 nM.
As for `COC(=O)N(C)c1c(N)nc(-c2nn(Cc3ccccc3F)c3ncccc23)nc1N` [Compound C], the “maximum relaxation relative to isoprenaline” value in test [1] (setting [3]) is 90%. Moreover, the EC50 in test [1] (setting [4]) is 500 nM.
As to `C[C@@]1(C(F)(F)F)C(=O)Nc2nc(-c3nn(Cc4ncccc4F)c4ncc(F)cc34)nc(NCCC(F)(F)F)c21` [Compound D], the “maximum relaxation relative to isoprenaline” value in test [1] (setting [3]) is 80%. For the same compound, in test [1] (setting [4]), the EC50 worked out at 1600 nM.
Taken in the same sequence, the figures for `Fc1ccccc1Cn1nc(-c2nc(C(F)(F)F)n[nH]2)c2cccnc21` [Compound E] were 89% and 530 nM.
As to `NCCN(CCN)/[N+]([O-])=N/O` [DETA-NO, diethylenetriamine/NO, reference compound], the mean percentage relaxation in test [1] (10 μM DETA-NO alone, second donor, N=5) is 8%; in test [1] (30 μM DETA-NO alone, second donor, N=4) it was 13%. In addition, the “mean relaxation relative to isoprenaline” value in test [1] (30 μM DETA-NO alone, Compound B experiments, N=12) amounted to 7.6%.
As for `CCCc1nn(C)c2c(=O)[nH]c(-c3cc(S(=O)(=O)N4CCN(C)CC4)ccc3OCC)nc12` [sildenafil], in test [2], the “effect on LES pressure” value is “able to reduce LES pressure” and the “effect on clinical symptoms” value was “clinical symptoms were not improved”.

Source of the values: patent publication US20180344735A1, “USE OF sGC STIMULATORS FOR THE TREATMENT OF GASTROINTESTINAL SPHINCTER DYSFUNCTION” (Ironwood Pharmaceuticals, Inc., priority 2015, published 2018).
